# From patent US7371779B2, “Synergistic compositions of N-acylhomoserine lactones and 4-quinolones” (The Secretary of State for Defense Science and Technology, priority 2001, dated 2008)
# Entries after “also recorded” stand apart in the source; their conditions may differ.
# Tests used:
# TNF-alpha = TNF-alpha production from LPS-stimulated human PBMC (sandwich ELISA); type: cell-based; details: for inhibition of LPS induced TNF-α production by human PBMC, in words: LPS-stimulated human PBMC
# Method: Bacterial lipopolysaccharide (LPS) stimulates the production of a variety of cytokines, including TNF-alpha, from human PBMC; these cytokines in turn influence the development of T cells, supporting a T helper 1 conducive milieu. Human PBMC prepared from whole blood by buoyant density centrifugation were resuspended in CTCM. […] Following incubation for 24 h at 37° C. in 5% CO2-air, the cell culture supernatants were collected and tested for TNF-alpha levels by ‘sandwich’ ELISA. Briefly, 96-well Nunc MaxiSorp (Life Technologies, Paisley, UK) plates were coated with 50 μl of a 2 μg/ml solution of mouse anti-human TNF-alpha monoclonal antibody (Pharmingen, UK) in 0.05 M carbonate/bicarbonate buffer, pH 9.6 overnight at 4° C. After washing the plates three times with PBS-Tween, which contained phosphate buffered saline (PBS) with 0.5% (vol/vol) Tween 20 (Sigma, Poole, UK), the plates were blocked with 1% (wt/vol) bovine serum albumin (BSA) (Sigma, Poole, UK) at room temperature for 2 h. Following three washes with PBS-Tween, 50 μl of cell culture supernatants were added and incubated overnight at 4° C.; standard human TNF-alpha (Pharmingen, UK) ranging from 2000 to 31.25 pg/ml were included for each plate. After four washes with PBS-Tween, 50 μl of a second antibody, biotinylated mouse anti-human TNF-alpha monoclonal antibody (Pharmingen, UK) was added at 0.5 μg/1 ml diluted in 1% BSA in PBS-Tween and incubated at room temperature for 1 h. Following four washes, the bound biotinylated antibody was detected with 50 μl of a 1:1,000 dilution of Streptavidin-peroxidase (Pharmingen, UK). At the end of an hour incubation at room temperature, the plates were thoroughly washed six times with PBS-Tween and the assay was developed by the addition of 100 μl of 0.1 mg/ml of tetramethyl benzidine subtrate (Sigma, Poole, UK) in 0.1 M sodium acetate buffer, pH 6 containing 0.03% H2O2. The enzyme reaction was stopped with 50 μl of 2.5 M H2SO4 after an incubation of 10 minutes at room temperature and the development was read at 450 nm with a spectrophotometric 96-well plate reader (Dynex).
# IL-2 = IL-2 production from anti-CD3 and anti-CD28 stimulated hPBMC (sandwich ELISA); type: cell-based, human; details: four donors, 24 h supernatants
# Method: Anti-CD3 and anti-CD28 antibodies were used to assess the effect of quorum sensing signal molecules (PQS, OdDHL and OHHL) on T-cell proliferation and IL-2 secretion. Proliferation was assessed by the incorporation of [^3H]-thymidine into the DNA of PBMC and the release of cytokines in the culture supernatants was determined by ‘sandwich’ ELISA. Blood specimens were obtained with consent from four healthy human volunteers (aged between 20 and 50 years). Human PBMC were isolated from heparinised whole blood by buoyant density centrifugation over Histopaque 1077 (Sigma, Poole, UK) at 600 g for 20 minutes. […] Following the addition of 25 μl of scintillant (MicroScint-O™; Packard Bioscience Ltd. UK) to each well in the filter plates, the radioactivity in the filters was measured with a β-scintillation counter (TopCount™, Packard Bioscience Ltd, UK) according to manufacturer's specifications. […]
# When T cells in hPBMC are challenged with anti-CD3 and anti-CD28 antibodies, the cytokine IL-2 is released into the culture supernatants. The levels of cytokine produced in the culture supernatants after 24 h were determined in a ‘sandwich’ ELISA. […] Following four washes, the bound biotinylated antibody was detected with 50 μl of a 1:1,000 dilution of streptavidin-peroxidase (BD Pharmingen, UK). […]
Structure (SMILES),"IC50 (TNF-alpha; Experiment III, read-out: IC50 in inhibition of LPS induced production of TNF-α by human PBMC) [µM]","inhibition of LPS induced TNF-α production by human PBMC, in words (TNF-alpha; listed as OdDHL)","inhibition of release of IL-2 from hPBMC stimulated via CD3 and CD28, in words (IL-2; listed as OdDHL)","inhibition of LPS induced TNF-α production by human PBMC, in words (TNF-alpha)","inhibition of release of IL-2 from hPBMC stimulated via CD3 and CD28, in words (IL-2)"
CCCCCCCCCC(=O)CC(=O)N[C@H]1CCOC1=O [Example 6],17,inhibited the secretion,inhibited in a dose dependent manner the release of IL-2; also recorded: inhibits the release of IL-2,–,–
CCCCCCCc1[nH]c2ccccc2c(=O)c1O [PQS],–,–,–,not inhibited,"but not PQS, inhibits the release of IL-2"
